From patent US11827677B2, “Antimicrobial peptide ID13, preparation method and use thereof” (Feed Research Institute, Chinese Academy of Agricultural …, priority 2019, dated 2023)
Several values for one entry are separate records, joined by “and”; a condition that tells them apart may be missing. Equal values may be shown once. Read-outs that look alike come from different tables or passages of the source. Bridge positions count the residues as written; N and C are the ends. Peptide text beside a SMILES is read from it.

How the values were obtained:
[1] = tested on: Staphylococcus aureus ATCC 43300; test: MIC by trace broth dilution method; assay type: cell-based; conditions: 16-18 h
Experimental: (§1) The minimum inhibition concentration (MIC) of ID13 against pathogens was measured using a trace broth dilution method. The freeze-dried powder of antimicrobial peptide ID13 obtained in Example 6 was used to prepare a solution of antimicrobial peptide ID13 with a concentration of 1280 μg/mL and a solution of vancomycin, respectively with sterile normal saline, and diluted with a two-fold ratio to a final concentration of 1.25 μg/mL. The antimicrobial peptide ID13 solutions and vancomycin solutions of different concentrations were added to a sterile 96-well cell culture plate, with 10 μL per well, three parallels for each sample, and the same amount (10 μL) of sterile saline was used as a negative control, to prepare MIC plates. Strains were cultured in MH liquid medium with shaking at 37° C. until its OD600 nm=0.4 and diluted to 1×10^5 CFU/ml. 90 μL of cell suspension was added into each well of the prepared sample well of the MIC plate and incubated at 37° C. for 16-18 h.

[2] = tested on: Staphylococcus aureus CVCC 546; test: MIC by trace broth dilution method; assay type: cell-based; conditions: 16-18 h
Experimental: as §1

[3] = tested on: Streptococcus suis CVCC 3928; test: MIC by trace broth dilution method; assay type: cell-based; conditions: 16-18 h
Experimental: as §1

MRSA ATCC 43300 = conditions: cited from earlier work
[4] = tested on: Staphylococcus Epidermidis ATCC 12228; test: MIC by trace broth dilution method; assay type: cell-based
Experimental: as §1

[5] = tested on: Streptococcus pneumoniae CVCC 2350; test: MIC by trace broth dilution method; assay type: cell-based
Experimental: as §1

Gram-positive bacteria = test: Antimicrobial activity (MIC) summary over tested strains; assay type: cell-based; conditions: range over the tested Gram-positive strains
Experimental: as §1

mice red blood cells = test: Hemolysis assay; assay type: cell-based, ICR mice; conditions: concentration of 1-256 μg/mL; 37° C., 1 h
Experimental: The freeze-dried powder of antimicrobial peptide ID13 obtained in Example 6 was used for the test. The antimicrobial peptide ID13 was dissolved in sterile physiological saline to prepare a stock solution of a concentration of 512 μg/mL, and diluted with a 2-fold ratio to a final concentration of 2 μg/mL. The blood from the eyeballs of 6-week-old SPF female ICR mice was taken and collected with a heparin sodium anticoagulation tube. The collected blood was centrifuged at 4° C., 1500 rpm for 10 min. The red blood cells were washed three times with 10 mM PBS (pH 7.3) until the supernatant was colorless and transparent, and an 8% red blood cell suspension was prepared. 100 μL of the red blood cell suspension and antimicrobial peptide ID13 solution were added to 96-well plate, incubated at 37° C. for 1 h, and centrifuged at 1500 rpm for 5 min. The resulted supernatant was transferred to ELISA plate to detect the UV absorbance at 540 nm. Values of 0% and 100% hemolysis control tests were set up with physiological saline and 0.1% TRITON X-100 detergent, respectively. The formula for calculating the degree of hemolysis was as follows (Jung, Park, etc., 2007): Hemolysis (%)=[(Abs540 nm antimicrobial peptide ID13—Abs540 nm physiological saline)/(Abs540 nm 0.1% TRITON X-100 detergent—Abs540 nm physiological saline)]×100%.

RAW264.7 cells = test: Cytotoxicity assay (MTT); assay type: cell-based; conditions: 256 μg/mL, 24 hours incubation
Experimental: The RAW264.7 cells were cultured in DMEM complete medium with 37° C., 5% CO2 and saturated humidity conditions. The cells were pipetted and re-suspended in DMEM complete medium. Then, the cells were seeded in a 96-well plate at a density of 2.5×10^5 cells/mL, 100 μL per well, and 3 replicates were set. After 24 h, the medium was removed, and 100 μL of 1, 2, 4, 8, 16, 32, 64, 128, and 256 μg/mL ID13 were added to each well according to a concentration gradient. Control wells were added with the same amount of PBS solution. After 24 hours incubation, the medium was removed; the wells were washed twice with PBS, and 100 μL of MTT at a concentration of 5 mg/mL was added to each well (which were operated in dark). The 96-well plate was moved to an incubator and continued to be incubated for 4 h. After discarding the MTT solution, 150 μL DMSO was added into each well, and then the plate was cultured with shaking for 10 minutes. When crystals at the well bottom were completely dissolved, the absorbance values were measured at a wavelength of 570 nm. The cell survival rate was calculated according to the following formula: survival rate (%)=OD value of the treatment group/OD value of the control group×100% (Jiao et al., 2015).

With CC[C@H](C)[C@@H]1NC(=O)[C@@H]2CSSC[C@@H](C(=O)N[C@@H](CCCNC(=N)N)C(=O)N[C@@H](CCCCN)C(=O)O)NC(=O)[C@H](CC(N)=O)NC(=O)[C@@H]3CSSC[C@H](NC(=O)[C@H](C)NC(=O)[C@H](C)NC(=O)[C@H](Cc4c[nH]cn4)NC(=O)CNC(=O)[C@H](C(C)C)NC(=O)[C@H](CCCCN)NC(=O)[C@H](Cc4ccccc4)NC(=O)[C@@H]4CCCN4C(=O)[C@H](CO)NC(=O)[C@H](CC(C)C)NC(=O)[C@H](CC(C)C)NC(=O)[C@H](CC(=O)O)NC(=O)[C@@H](NC(=O)[C@@H](NC(=O)[C@H](C)N)[C@@H](C)O)CSSC[C@H](NC(=O)[C@H](Cc4c[nH]c5ccccc45)NC(=O)CNC(=O)CNC(=O)[C@H](CCCNC(=N)N)NC(=O)[C@H](CCCCN)NC(=O)CNC(=O)[C@H](CCCNC(=N)N)NC(=O)[C@H](C)NC1=O)C(=O)N[C@@H](CC(=O)O)C(=O)N[C@@H](CCCCN)C(=O)N[C@@H](CCCNC(=N)N)C(=O)N[C@@H](C)C(=O)N[C@@H](C(C)C)C(=O)N3)C(=O)N[C@@H](C)C(=O)N[C@@H](C)C(=O)N[C@@H](Cc1c[nH]cn1)C(=O)N2 [DLP4] (H-ATCDLLSPFKVGHAACAAHCIARGKRGGWCDKRAVCNCRK-OH; disulfide 3-30, 16-36, 20-38; N-terminus and C-terminus assumed) the MIC ([1]; 37° C.) was 16 µg/mL, the MIC ([2]; 37° C.) was 16 µg/mL and the MIC ([3]; 37° C.) was 16 µg/mL. The “drug tolerance such as increased MIC” value (MRSA ATCC 43300; MRSA ATCC 43300 continuously passaged for 30 days under the effective dose) was “no drug tolerance”.
With CC[C@H](C)[C@@H]1NC(=O)[C@@H]2CSSC[C@@H](C(=O)N[C@@H](CCCNC(=N)N)C(=O)N[C@@H](CCCCN)C(=O)O)NC(=O)[C@H](CC(N)=O)NC(=O)[C@@H]3CSSC[C@H](NC(=O)[C@H](C)NC(=O)[C@H](C)NC(=O)[C@H](Cc4c[nH]cn4)NC(=O)CNC(=O)[C@H](C(C)C)NC(=O)[C@H](CCCCN)NC(=O)[C@H](Cc4ccccc4)NC(=O)[C@@H]4CCCN4C(=O)[C@H](CO)NC(=O)[C@H](CC(C)C)NC(=O)[C@H](CC(C)C)NC(=O)[C@H](CC(=O)O)NC(=O)[C@@H](NC(=O)[C@@H](NC(=O)[C@H](C)N)[C@@H](C)O)CSSC[C@H](NC(=O)[C@H](Cc4c[nH]c5ccccc45)NC(=O)CNC(=O)CNC(=O)[C@H](CCCNC(=N)N)NC(=O)[C@H](CCCCN)NC(=O)CNC(=O)[C@H](CCCNC(=N)N)NC(=O)[C@H](C)NC1=O)C(=O)N[C@@H](CC(=O)O)C(=O)NCC(=O)N[C@@H](CCCNC(=N)N)C(=O)N[C@@H](C)C(=O)N[C@@H](C(C)C)C(=O)N3)C(=O)N[C@@H](C)C(=O)N[C@@H](C)C(=O)N[C@@H](Cc1c[nH]cn1)C(=O)N2 [ID13] (H-ATCDLLSPFKVGHAACAAHCIARGKRGGWCDGRAVCNCRK-OH; disulfide 3-30, 16-36, 20-38 (inferred); N-terminus and C-terminus assumed) the MIC ([4]; Staphylococcus Epidermidis ATCC 12228, 37° C., 16-18 h) was 1.91 μM and 8 μg/mL, the MIC ([1]; 37° C.) was 4 µg/mL and the MIC ([1]; 37° C., read-out: MIC) was 0.95 µM. For the same molecule, the MIC ([2]; 37° C.) was 4 µg/mL, the MIC ([2]; 37° C., read-out: MIC) was 0.95 µM and the MIC ([5]; Streptococcus pneumoniae CVCC 2350, 37° C., 16-18 h) was 0.95 μM and 4 μg/mL. The MIC ([3]; 37° C.) was 4 µg/mL, the MIC ([3]; 37° C., read-out: MIC) was 0.95 µM and the “antimicrobial activity against Gram-positive bacteria (MIC range)” value (Gram-positive bacteria) was 0.95 to 1.91 µM. For the same molecule, the “hemolysis to mice red blood cells” value (mice red blood cells) was “little hemolysis” and the cell survival rate (RAW264.7 cells) was 72%.
For CN[C@H](CC(C)C)C(=O)N[C@H]1C(=O)N[C@@H](CC(N)=O)C(=O)N[C@H]2C(=O)N[C@H]3C(=O)N[C@H](C(=O)N[C@H](C(=O)O)c4cc(O)cc(O)c4-c4cc3ccc4O)[C@H](O)c3ccc(c(Cl)c3)Oc3cc2cc(c3O[C@@H]2O[C@H](CO)[C@@H](O)[C@H](O)[C@H]2O[C@H]2C[C@](C)(N)[C@H](O)[C@H](C)O2)Oc2ccc(cc2Cl)[C@H]1O [Vancomycin], the MIC ([4]; Staphylococcus epidermidis, ATCC12228) was 0.67 µM and 1 µg/mL, the MIC ([1]; ATCC43300, 37° C., read-out: MIC) was 0.67 µM and 1 µg/mL and the MIC ([2]; CVCC546, 37° C., read-out: MIC) was 0.67 µM and 1 µg/mL. The MIC ([5]; Streptococcus pneumoniae, CVCC2350) was 0.34 µM and 0.5 µg/mL and the MIC ([3]; CVCC3928, 37° C., read-out: MIC) was 0.17 µM and 0.25 µg/mL.
In the case of CO/N=C(\C(=O)N[C@@H]1C(=O)N2C(C(=O)O)=C(CSc3nc(=O)c(=O)[nH]n3C)CS[C@H]12)c1csc(N)n1 [ceftriaxone], the “increase of MIC value” (MRSA ATCC 43300; MRSA ATCC 43300 continuously passaged for 30 days) is listed as 256 times.
